The source of these data is PMC6030093, “Discovery of peptide probes to modulate oxytocin-type receptors of insects” (Scientific Reports, 2018).

“Also recorded” adds a separate entry of the source. Positions of bridges follow the written chain, without caps; N, C: chain ends. No end group written: not given here.

The test system of data set [1] is L. niger inotocin receptor. Briefly: IP1 accumulation, agonist mode (L. niger inotocin receptor). The format is cell-based, Lasius niger. Conditions: for Emax / LogEC50: HEK293 cells expressing L. niger receptor (C-terminal EGFP fusion), IP-One HTRF assay, mean ± S.E.M. from at least three independent experiments in triplicate; for Emax: 1 h at 37 °C; for LogEC50: pH 7.4, 1 h at 37 °C. The text has this: (§1) The T. castaneum receptor gene was kindly provided by Yoonseong Park (Kansas State University)[8], whereas the L. niger inotocin receptor gene had been cloned and sequenced as per Di Giglio et al.[11]. Both receptor constructs were subsequently cloned into the pEGFP-N1 expression plasmid, generating C-terminal EGFP fusion receptor proteins. Receptors were expressed in HEK293 cells (ATCC, CRL 1573) via transfection using the Lipofectamine 2000® transfection reagent. The use of mammalian cell lines to study the receptors of insects and other invertebrate species, in the same vain as orphan receptors from mammalian genomes, is considered a standard procedure. Various studies have utilized this approach[8],[9],[11]. Whilst such mammalian cell lines may not completely mimic insect cell biology, GPCRs and their signalling is highly homologous across the animal kingdom; it would be unlikely that the insect receptors would mis-fold in a mammalian cell line. Nevertheless, during assay optimization we routinely monitored surface expression of GFP-tagged receptors, and we only proceeded to pharmacological assays, if the receptor localized at the cell membrane. Moreover, most biochemical cell-based functional assays are optimized for mammalian cells. Whilst it is possible that insect cells could be utilized for these assays, it is unknown whether they endogenously express inotocin receptors. […] Accordingly, mammalian cells were cultured in DMEM supplemented with 10% FBS and penicillin/streptomycin (100 U mL^−1) and plated in 6-well plates prior to transfection. When cells had reached confluency, cells were transfected as per the manufacturer’s protocol with 2.5 µg per well of each respective receptor construct using a DNA:Lipofectamine 2000® ratio of 1:3 prepared in serum-free DMEM. After 4–6 h, cells were dissociated by trituration and replated into white opaque 384-well plates (CellStar®, Greiner, Kremsmünster, Austria) at approximately 10,000 cells per well. Cells were cultured for approximately 38–48 h in a humidified incubator at 37 °C and an atmosphere of 5% CO2, and then assayed for second messenger production. Verification of receptor expression was assessed via microscopic examination of membrane localised GFP fluorescence.
(§2) Quantitative measurements of receptor-mediated inositol 1-phosphate (IP1) were performed by competitive immunoassay utilising the IP-One assay kit (CisBio, France). HEK293 cells were prepared as described above and then assayed as per the manufacturer’s protocol. Briefly, at the time of assay, the culture media was removed from cells, and then replaced with IP-One stimulation buffer (HEPES 10 mM, CaCl2 1 mM, MgCl2 0.5 mM, KCl 4.2 mM, NaCl 146 mM, glucose 5.5 mM, LiCl 50 mM, pH 7.4). Cells were allowed to equilibrate in the stimulation buffer at 37 °C for 15 min, followed by addition of peptide ligands (to final concentrations of 0.1 pM – 10 µM) for subsequent stimulation for 1 h at 37 °C. The stimulation was terminated by lysis and the simultaneous addition of homogenous time-resolved fluorescence resonance energy transfer reagents. The lysates were incubated for a minimum of 1 h at room temperature. Fluorescence emission measurements at 620 nm and 665 nm were performed using a FlexStation3 plate reader (Molecular Devices, Sunnyvale, CA) or Spark Multimode plate reader (Tecan, Männedorf, Switzerland) at an excitation wavelength of 340 nm. Results were analysed as a ratio of fluorescence intensities of 665 nm to 620 nm.
Data from cellular assays were analysed using GraphPad Prism 7.03 (GraphPad Software, San Diego). Concentration-response data were fitted to three- or four-parameter logistic equations to derive estimates of potency (LogEC50) and efficacy (Emax), relative to the maximal inotocin control response. Data from agonist-antagonist interaction experiments were fit to a Schild regression analysis.

The subject of data set [2] is T. castaneum inotocin receptor. Briefly: IP1 accumulation, agonist mode (T. castaneum inotocin receptor). Type of data set: cell-based, Tribolium castaneum.
Description: as §1
as §2, with “Cells were allowed to equilibrate in the stimulation buffer at 37 °C for 15 min, followed by addition of peptide ligands (to final concentrations of 0.1 pM – 10 µM) for subsequent stimulation for 1 h at 37 °C.” left out, “The lysates were incubated for a minimum of 1 h at room temperature.” left out
(§3) Data from cellular assays were analysed using GraphPad Prism 7.03 (GraphPad Software, San Diego). […]

Data set [3] relates to T. castaneum inotocin receptor. Nature of the data set: Antagonism of inotocin-mediated IP1 accumulation, Schild analysis. The format is cell-based, Tribolium castaneum. Conditions: HEK293, IP1.
Description: as §1, with “After 4–6 h, cells were dissociated by trituration and replated into white opaque 384-well plates (CellStar®, Greiner, Kremsmünster, Austria) at approximately 10,000 cells per well. Cells were cultured for approximately 38–48 h in a humidified incubator at 37 °C and an atmosphere of 5% CO2, and then assayed for second messenger production.” left out
Quantitative measurements of receptor-mediated inositol 1-phosphate (IP1) were performed by competitive immunoassay utilising the IP-One assay kit (CisBio, France). […] The stimulation was terminated by lysis and the simultaneous addition of homogenous time-resolved fluorescence resonance energy transfer reagents. […] Fluorescence emission measurements at 620 nm and 665 nm were performed using a FlexStation3 plate reader (Molecular Devices, Sunnyvale, CA) or Spark Multimode plate reader (Tecan, Männedorf, Switzerland) at an excitation wavelength of 340 nm. Results were analysed as a ratio of fluorescence intensities of 665 nm to 620 nm.
as §3

The test system of data set [4] is human vasopressin V1a receptor. The following applies: cited from earlier work. The text has this: (§4) Compared to the level of identity between the T. castaneum inotocin receptor and its human counterparts (approximately 37–40% similarity ...
The subject of the next data set is human oxytocin receptor. Conditions: cited from earlier work.
Description: as §4

The test system of data set [5] is T. castaneum inotocin receptor. Conditions: initial characterisation of the T. castaneum receptor; cited from earlier work. The text has this: In parallel to characterising the inotocin receptor activity of kalata B7, we sought to identify an antagonist peptide. Our recent study with the L. niger inotocin peptide-receptor system[11] further emphasised the structural homology shared between inotocin receptors and human oxytocin/vasopressin receptors (Fig. 2, Table 1). […] Given this homology, we were interested in the ability of the oxytocin/V1a receptor anta ...

Data set [6] concerns the target Lasius niger inotocin receptor (Lasius niger).
For data set [7], the target named is Tribolium castaneum inotocin receptor (Tribolium castaneum).
[8] abbreviates: L. niger receptor, IP1 accumulation, HEK293.
Setting [9] is: T. castaneum receptor, IP1 accumulation, HEK293.

With atosiban, in [1], the Emax is 89.9 ± 4.5 % inotocin max. response and the LogEC50 is −5.81 ± 0.12 Log[M]. Besides, in [1] (setting [8]), the “agonist activity (in words)” value is on record as “partial agonist”. In addition, the “agonist activity (in words)” value in data set [2] (setting [9]) is reported as “lacked agonist activity”. In addition, in data set [3] (dextral displacement of the inotocin concentration-response curve), the “antagonism of inotocin (in words)” value is “competitively inhibits the T. castaneum inotocin receptor; also recorded: selectively antagonises the T. castaneum receptor”. The estimated functional affinity result in data set [3] (from Schild analysis (pA2), competitive antagonism of inotocin) is listed as “approximately 93 nM”. The pA2 in data set [3] (inotocin 1 pM – 10 µM in absence or presence of 100 nM, 1 µM, 3 µM, 10 µM atosiban, Schild analysis, mean ± S.E.M. of three independent experiments in triplicate) was determined as 7.03 ± 0.086. Besides, in [3] (inotocin 1 pM – 10 µM in absence or presence of 100 nM, 1 µM, 3 µM, 10 µM atosiban, mean ± S.E.M. of three independent experiments in triplicate), the “Schild Slope” value came to 1.00 ± 0.085.
“kalata B7: plant-derived cyclic peptide (cyclotide) from Oldenlandia affinis, synthesised by Fmoc-SPPS and native chemical ligation (cyclo(GLPVCGETCTLGTCYTQGCTCSWPICKRN); also: oxidized form, disulfides not placed)”: the Emax is 86.5 ± 4.7 % inotocin max. response in data set [1] and 60.3 ± 9.6 % inotocin max. response in data set [2] (HEK293 cells expressing T. castaneum receptor (C-terminal EGFP fusion), IP-One HTRF assay, 1 h at 37 °C, mean ± S.E.M. from at least three independent experiments in triplicate). For the same molecule, the LogEC50 in [1] was −5.66 ± 0.10 Log[M]; in data set [2] (HEK293 cells expressing T. castaneum receptor (C-terminal EGFP fusion), IP-One HTRF assay, pH 7.4, 1 h at 37 °C, mean ± S.E.M. from at least three independent experiments in triplicate), −5.14 ± 0.22 Log[M]. The “agonist activity (in words)” value in data set [1] (setting [8]) and in [2] (setting [9]) was “weak partial agonist” throughout. The EC50 in [1] (L. niger receptor, IP1 accumulation, HEK293, read-out: potency) was found to be 2.2 µM; in data set [2] (T. castaneum receptor, IP1 accumulation, HEK293, read-out: potency) it was 7.2 µM. Moreover, the “activity at human vasopressin V1a receptor (in words)” value in [4] was “partial agonist”. Besides, the “activity at human oxytocin receptor (in words)” value with human oxytocin receptor is “partial agonist”. In addition, the “effects on cell viability” value with HEK293 cells is “did not observe negative effects on cell viability”.
Regarding “oxytocin: reported agonist of the T. castaneum receptor”, the “agonist activity at T. castaneum receptor (in words)” value in data set [5] is reported as “agonist”.

B1: kalata B7 (peptide)
peptide: cyclo(GLPVCGETCTLGTCYTQGCTCSWPICKRN)
modifications: disulfide (positions not given here); also: oxidized, disulfide pairing not given here
Take B1: in data set [6], the Emax of receptor-mediated IP1 accumulation in HEK293 cells expressing the L. niger inotocin receptor (% inotocin max. response) was 86.5 and the LogEC50 of receptor-mediated IP1 accumulation in HEK293 cells expressing the L. niger inotocin receptor was -5.66 Log[M]. Besides, in [7], the Emax of receptor-mediated IP1 accumulation in HEK293 cells expressing the T. castaneum inotocin receptor (% inotocin max. response) was found to be 60.3 and the LogEC50 of receptor-mediated IP1 accumulation in HEK293 cells expressing the T. castaneum inotocin receptor was -5.14 Log[M].
In data set [6], CLITNCPRG-NH2 (disulfide 1-6 (inferred)) [inotocin] displayed an Emax of receptor-mediated IP1 accumulation in HEK293 cells expressing the L. niger inotocin receptor (the reference response) (% inotocin max. response) of 100 and a LogEC50 of receptor-mediated IP1 accumulation in HEK293 cells expressing the L. niger inotocin receptor of -10.2 Log[M]. In [7], this molecule showed an Emax of receptor-mediated IP1 accumulation in HEK293 cells expressing the T. castaneum inotocin receptor (the reference response) of 100% and a LogEC50 of receptor-mediated IP1 accumulation in HEK293 cells expressing the T. castaneum inotocin receptor of -9.63 Log[M].
